In article PMC6691788, “Design and synthesis of phthalazine-based compounds as potent anticancer agents with potential antiangiogenic activity via VEGFR-2 inhibition” (Journal of Enzyme Inhibition and Medicinal Chemistry, 2019):

Tests used:
EKVX = assay: NCI 60 cell panel SRB screen; type: cell-based, human
HOP-92 = assay: NCI 60 cell panel SRB screen; type: cell-based; conditions: Homo sapiens
NCI-H322M = assay: NCI 60 cell panel SRB screen; type: cell-based; conditions: Homo sapiens
COLO 205 = assay: NCI 60 cell panel SRB screen; type: cell-based; conditions: Homo sapiens
HT29 = assay: NCI 60 cell panel SRB screen; type: cell-based; conditions: Homo sapiens, HT-29
SF-268 = assay: NCI 60 cell panel SRB screen; type: cell-based; conditions: Homo sapiens
SF-295 = assay: NCI 60 cell panel SRB screen; type: cell-based; conditions: Homo sapiens
SF-539 = assay: NCI 60 cell panel SRB screen; type: cell-based, human
LOX IMVI = assay: NCI 60 cell panel SRB screen; type: cell-based; conditions: Homo sapiens
M14 = assay: NCI 60 cell panel SRB screen; type: cell-based; conditions: Homo sapiens
SK-MEL-2 = assay: NCI 60 cell panel SRB screen; type: cell-based
OVCAR-8 = assay: NCI 60 cell panel SRB screen; type: cell-based; conditions: Homo sapiens
NCI/ADR-RES = assay: NCI 60 cell panel SRB screen; type: cell-based; conditions: Homo sapiens
A498 = assay: NCI 60 cell panel SRB screen; type: cell-based; conditions: Homo sapiens
UO-31 = assay: NCI 60 cell panel SRB screen; type: cell-based; conditions: Homo sapiens
DU-145 = assay: NCI 60 cell panel SRB screen; type: cell-based; conditions: Homo sapiens
MCF7 = assay: NCI 60 cell panel SRB screen; type: cell-based; conditions: Homo sapiens
full NCI 60 cell panel = assay: NCI 60 cell panel SRB screen, whole panel; type: cell-based, human; conditions: Homo sapiens, 60 cell, NCI 5-log dose, full 60 cell panel; read-out: GI50 values, range over the tested cell lines
[1] = 5 log dose, 48 h, read-out: LC50 (the source's name)
[2] = single dose 10 μM, read-out: percent cell growth promotion
[3] = Homo sapiens, SF-539, 5 log dose

Q: What does the source list for `Clc1ccc(Nc2nnc(COc3ccccc3)c3ccccc23)cc1` [Compound 17a, N-(4-Chlorophenyl)-4-(phenoxymethyl)phthalazin-1-amine]?
A: GI50 (EKVX; Homo sapiens, 5 log dose): 0.67 µM; IC (TGI) (EKVX; Homo sapiens, 5 log dose): 7.32 µM; LC50 (EKVX; Homo sapiens, 5 log dose, 48 h): > 25 µM; percent cell growth promotion (EKVX; single dose 10 μM): 6.53%; GI50 (HOP-92; HOP-92, 5 log dose): 0.33 µM; IC (TGI) (HOP-92; HOP-92, 5 log dose): 3.09 µM; CC50 (HOP-92; HOP-92, 5 log dose, 48 h, read-out: LC50 (the source's name)): > 25 µM; activity at 10 µM (HOP-92; HOP-92, single dose 10 μM, read-out: percent cell growth promotion): -28%; GI50 (NCI-H322M; 5 log dose): 1.56 µM; IC (TGI) (NCI-H322M; 5 log dose): 8.2 µM; CC50 (NCI-H322M; [1]): > 25 µM; activity at 10 µM (NCI-H322M; [2]): 21.1%; GI50 (COLO 205; COLO 205, 5 log dose): 0.45 µM; IC (TGI) (COLO 205; COLO 205, 5 log dose): 4.38 µM; CC50 (COLO 205; COLO 205, 5 log dose, 48 h, read-out: LC50 (the source's name)): 16.1 µM; activity at 10 µM (COLO 205; COLO 205, single dose 10 μM, read-out: percent cell growth promotion): -5.75%; GI50 (HT29; HT29, 5 log dose): 0.42 µM; IC (TGI) (HT29; HT29, 5 log dose): 4.25 µM; CC50 (HT29; HT29, 5 log dose, 48 h, read-out: LC50 (the source's name)): 17.4 µM; activity at 10 µM (HT29; HT29, single dose 10 μM, read-out: percent cell growth promotion): 1.32%; GI50 (SF-268; SF-268, 5 log dose): 2.23 µM; IC (TGI) (SF-268; SF-268, 5 log dose): 12.9 µM; CC50 (SF-268; SF-268, 5 log dose, 48 h, read-out: LC50 (the source's name)): > 25 µM; activity at 10 µM (SF-268; SF-268, single dose 10 μM, read-out: percent cell growth promotion): 13.2%; GI50 (SF-295; SF-295, 5 log dose): 1.65 µM; IC (TGI) (SF-295; SF-295, 5 log dose): 6.7 µM; CC50 (SF-295; SF-295, 5 log dose, 48 h, read-out: LC50 (the source's name)): 20.5 µM; activity at 10 µM (SF-295; SF-295, single dose 10 μM, read-out: percent cell growth promotion): -1.11%; GI50 (SF-539; [3]): 3.12 µM; IC (TGI) (SF-539; [3]): 7.58 µM; CC50 (SF-539; Homo sapiens, SF-539, 5 log dose, 48 h, read-out: LC50 (the source's name)): 18.4 µM; percent cell growth promotion (SF-539; SF-539, single dose 10 μM): 8.42%; GI50 (LOX IMVI): 1.29 µM; CC50 (LOX IMVI; [1]): 11.9 µM; IC (TGI) (LOX IMVI; read-out: TGI): 4.85 µM; activity at 10 µM (LOX IMVI; read-out: percent cell growth promotion): -62%; GI50 (M14; M14): 0.91 µM; IC (TGI) (M14; M14, read-out: TGI): 5.03 µM; activity at 10 µM (M14; M14, read-out: percent cell growth promotion): -9.99%; CC50 (M14; M14, 5 log dose, 48 h, read-out: LC50 (the source's name)): 15.2 µM; GI50 (SK-MEL-2; Homo sapiens): 0.97 µM; IC (TGI) (SK-MEL-2; Homo sapiens, read-out: TGI): 5.13 µM; CC50 (SK-MEL-2; Homo sapiens, SK-MEL-2, 5 log dose, 48 h, read-out: LC50 (the source's name)): 15.1 µM; percent cell growth promotion (SK-MEL-2; SK-MEL-2, single dose 10 μM): -26.47%; GI50 (OVCAR-8; OVCAR-8, 5 log dose): 3.49 µM; IC (TGI) (OVCAR-8; OVCAR-8, 5 log dose): 15 µM; CC50 (OVCAR-8; OVCAR-8, 5 log dose, 48 h, read-out: LC50 (the source's name)): > 25 µM; activity at 10 µM (OVCAR-8; OVCAR-8, single dose 10 μM, read-out: percent cell growth promotion): 5.02%; GI50 (NCI/ADR-RES; 5 log dose): 2.62 µM; IC (TGI) (NCI/ADR-RES; 5 log dose): 16.6 µM; CC50 (NCI/ADR-RES; [1]): > 25 µM; activity at 10 µM (NCI/ADR-RES; [2]): -1.13%; GI50 (A498; A498, 5 log dose): 0.68 µM; IC (TGI) (A498; A498, 5 log dose): 3.64 µM; CC50 (A498; A498, 5 log dose, 48 h, read-out: LC50 (the source's name)): 10.6 µM; activity at 10 µM (A498; A498, single dose 10 μM, read-out: percent cell growth promotion): -17.3%; GI50 (UO-31; UO-31, 5 log dose): 0.72 µM; IC (TGI) (UO-31; UO-31, 5 log dose): 5.2 µM; CC50 (UO-31; UO-31, 5 log dose, 48 h, read-out: LC50 (the source's name)): 23.9 µM; activity at 10 µM (UO-31; UO-31, single dose 10 μM, read-out: percent cell growth promotion): -12.3%; GI50 (DU-145; DU-145, 5 log dose): 2.65 µM; IC (TGI) (DU-145; DU-145, 5 log dose): 10.5 µM; CC50 (DU-145; DU-145, 5 log dose, 48 h, read-out: LC50 (the source's name)): > 25 µM; activity at 10 µM (DU-145; DU-145, single dose 10 μM, read-out: percent cell growth promotion): 10.4%; GI50 (MCF7; MCF7): 1.18 µM; IC (TGI) (MCF7; MCF7, read-out: TGI): 6.07 µM; activity at 10 µM (MCF7; MCF7, read-out: percent cell growth promotion): 1.31%; CC50 (MCF7; MCF7, 5 log dose, 48 h, read-out: LC50 (the source's name)): 19.8 µM; GI50 (full NCI 60 cell panel): 0.15 to 8.41 µM
